{"source": "PubChem BioAssay (NCI)", "experiment_in_all_cases": "growth of human tumour cells (NCI), 48 h", "key": {"HL-60(TB) leukemia": {"tested_on": "HL-60(TB) leukemia"}, "HT29 colon": {"tested_on": "HT29 colon"}, "CCRF-CEM leukemia": {"tested_on": "CCRF-CEM leukemia"}, "MDA-MB-435": {"tested_on": "MDA-MB-435"}, "MOLT-4 leukemia": {"tested_on": "MOLT-4 leukemia"}, "SF-539 CNS": {"tested_on": "SF-539 CNS"}, "MCF7 breast": {"tested_on": "MCF7 breast"}, "CAKI-1 renal": {"tested_on": "CAKI-1 renal"}, "M14 melanoma": {"tested_on": "M14 melanoma"}, "SNB-19 CNS": {"tested_on": "SNB-19 CNS"}, "OVCAR-5 ovarian": {"tested_on": "OVCAR-5 ovarian"}, "ACHN renal": {"tested_on": "ACHN renal"}, "LOX IMVI melanoma": {"tested_on": "LOX IMVI melanoma"}, "NCI/ADR-RES ovarian": {"tested_on": "NCI/ADR-RES ovarian"}, "SK-OV-3 ovarian": {"tested_on": "SK-OV-3 ovarian"}, "RXF 393 renal": {"tested_on": "RXF 393 renal"}, "SF-295 CNS": {"tested_on": "SF-295 CNS"}, "OVCAR-8 ovarian": {"tested_on": "OVCAR-8 ovarian"}, "SK-MEL-2 melanoma": {"tested_on": "SK-MEL-2 melanoma"}, "HOP-62 NSCLC": {"tested_on": "HOP-62 NSCLC"}, "MDA-N": {"tested_on": "MDA-N"}, "DU-145 prostate": {"tested_on": "DU-145 prostate"}, "SW-620 colon": {"tested_on": "SW-620 colon"}, "OVCAR-3 ovarian": {"tested_on": "OVCAR-3 ovarian"}, "HCT-15 colon": {"tested_on": "HCT-15 colon"}, "786-0 renal": {"tested_on": "786-0 renal"}, "NCI-H522 lung": {"tested_on": "NCI-H522 lung"}, "SR leukemia": {"tested_on": "SR leukemia"}, "A549 NSCLC": {"tested_on": "A549 NSCLC"}, "PC-3 prostate": {"tested_on": "PC-3 prostate"}, "HCT-116 colon": {"tested_on": "HCT-116 colon"}, "KM12 colon": {"tested_on": "KM12 colon"}, "COLO 205 colon": {"tested_on": "COLO 205 colon"}, "IGROV1 ovarian": {"tested_on": "IGROV1 ovarian"}, "SN12C renal": {"tested_on": "SN12C renal"}, "SK-MEL-5 melanoma": {"tested_on": "SK-MEL-5 melanoma"}, "UO-31 renal": {"tested_on": "UO-31 renal"}, "RPMI-8226 leukemia": {"tested_on": "RPMI-8226 leukemia"}, "U251 CNS": {"tested_on": "U251 CNS"}, "NCI-H226 lung": {"tested_on": "NCI-H226 lung"}, "K-562 leukemia": {"tested_on": "K-562 leukemia"}, "NCI-H23 lung": {"tested_on": "NCI-H23 lung"}, "HOP-92 NSCLC": {"tested_on": "HOP-92 NSCLC"}, "UACC-257 melanoma": {"tested_on": "UACC-257 melanoma"}, "SF-268 CNS": {"tested_on": "SF-268 CNS"}, "HS 578T breast": {"tested_on": "HS 578T breast"}, "T-47D breast": {"tested_on": "T-47D breast"}, "NCI-H460 lung": {"tested_on": "NCI-H460 lung"}, "UACC-62 melanoma": {"tested_on": "UACC-62 melanoma"}, "MDA-MB-231 breast": {"tested_on": "MDA-MB-231 breast"}, "SNB-75 CNS": {"tested_on": "SNB-75 CNS"}, "OVCAR-4 ovarian": {"tested_on": "OVCAR-4 ovarian"}, "HCC-2998 colon": {"tested_on": "HCC-2998 colon"}, "A498 renal": {"tested_on": "A498 renal"}, "SK-MEL-28 melanoma": {"tested_on": "SK-MEL-28 melanoma"}, "BT-549 breast": {"tested_on": "BT-549 breast"}, "TK-10 renal": {"tested_on": "TK-10 renal"}}, "note": "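Following 48 hours of exposure in 96-well plates, responses at five concentrations were used to interpolate endpoints linearly. TGI is the concentration that stops growth completely.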", "data": [{"smiles": "O=c1cc(-c2ccc(O)cc2)n(C2CC2)c2ccccc12", "values": [{"measurement": "TGI", "setting": "HL-60(TB) leukemia", "result": 81.6, "unit": "µM"}, {"measurement": "TGI", "setting": "HT29 colon", "result": 9.25, "unit": "µM"}, {"measurement": "TGI", "setting": "CCRF-CEM leukemia", "result": 72.2, "unit": "µM"}, {"measurement": "TGI", "setting": "MDA-MB-435", "result": 17.5, "unit": "µM"}, {"measurement": "TGI", "setting": "MOLT-4 leukemia", "result": "> 100", "unit": "µM"}, {"measurement": "TGI", "setting": "SF-539 CNS", "result": 18.9, "unit": "µM"}, {"measurement": "TGI", "setting": "MCF7 breast", "result": 35.5, "unit": "µM"}, {"measurement": "TGI", "setting": "CAKI-1 renal", "result": 20.8, "unit": "µM"}, {"measurement": "TGI", "setting": "M14 melanoma", "result": 20.7, "unit": "µM"}, {"measurement": "TGI", "setting": "SNB-19 CNS", "result": 50.1, "unit": "µM"}, {"measurement": "TGI", "setting": "OVCAR-5 ovarian", "result": 19.4, "unit": "µM"}, {"measurement": "TGI", "setting": "ACHN renal", "result": 5.99, "unit": "µM"}, {"measurement": "TGI", "setting": "LOX IMVI melanoma", "result": 16.7, "unit": "µM"}, {"measurement": "TGI", "setting": "NCI/ADR-RES ovarian", "result": 38.8, "unit": "µM"}, {"measurement": "TGI", "setting": "SK-OV-3 ovarian", "result": 42.6, "unit": "µM"}, {"measurement": "TGI", "setting": "RXF 393 renal", "result": 8.42, "unit": "µM"}, {"measurement": "TGI", "setting": "SF-295 CNS", "result": 11.9, "unit": "µM"}, {"measurement": "TGI", "setting": "OVCAR-8 ovarian", "result": 47.1, "unit": "µM"}, {"measurement": "TGI", "setting": "SK-MEL-2 melanoma", "result": 8.2, "unit": "µM"}, {"measurement": "TGI", "setting": "HOP-62 NSCLC", "result": 21.3, "unit": "µM"}, {"measurement": "TGI", "setting": "MDA-N", "result": 26.2, "unit": "µM"}, {"measurement": "TGI", "setting": "DU-145 prostate", "result": 21.5, "unit": "µM"}, {"measurement": "TGI", "setting": "SW-620 colon", "result": 26.7, "unit": "µM"}, {"measurement": "TGI", "setting": "OVCAR-3 ovarian", "result": 16.8, "unit": "µM"}, {"measurement": "TGI", "setting": "HCT-15 colon", "result": 16.8, "unit": "µM"}, {"measurement": "TGI", "setting": "786-0 renal", "result": 17.1, "unit": "µM"}, {"measurement": "TGI", "setting": "NCI-H522 lung", "result": 9.69, "unit": "µM"}, {"measurement": "TGI", "setting": "SR leukemia", "result": "> 100", "unit": "µM"}, {"measurement": "TGI", "setting": "A549 NSCLC", "result": 18.5, "unit": "µM"}, {"measurement": "TGI", "setting": "PC-3 prostate", "result": 92.3, "unit": "µM"}, {"measurement": "TGI", "setting": "HCT-116 colon", "result": 13.1, "unit": "µM"}, {"measurement": "TGI", "setting": "KM12 colon", "result": 16.2, "unit": "µM"}, {"measurement": "TGI", "setting": "COLO 205 colon", "result": 15.1, "unit": "µM"}, {"measurement": "TGI", "setting": "IGROV1 ovarian", "result": "> 100", "unit": "µM"}, {"measurement": "TGI", "setting": "SN12C renal", "result": 32.3, "unit": "µM"}, {"measurement": "TGI", "setting": "SK-MEL-5 melanoma", "result": 18.5, "unit": "µM"}, {"measurement": "TGI", "setting": "UO-31 renal", "result": 21.1, "unit": "µM"}, {"measurement": "TGI", "setting": "RPMI-8226 leukemia", "result": 9.05, "unit": "µM"}, {"measurement": "TGI", "setting": "U251 CNS", "result": 21.6, "unit": "µM"}, {"measurement": "TGI", "setting": "NCI-H226 lung", "result": 16.4, "unit": "µM"}, {"measurement": "TGI", "setting": "K-562 leukemia", "result": "> 100", "unit": "µM"}, {"measurement": "TGI", "setting": "NCI-H23 lung", "result": 26.6, "unit": "µM"}, {"measurement": "TGI", "setting": "HOP-92 NSCLC", "result": 19.8, "unit": "µM"}, {"measurement": "TGI", "setting": "UACC-257 melanoma", "result": 25.8, "unit": "µM"}, {"measurement": "TGI", "setting": "SF-268 CNS", "result": 24.5, "unit": "µM"}, {"measurement": "TGI", "setting": "HS 578T breast", "result": 24.8, "unit": "µM"}, {"measurement": "TGI", "setting": "T-47D breast", "result": 20.7, "unit": "µM"}, {"measurement": "TGI", "setting": "NCI-H460 lung", "result": 17.3, "unit": "µM"}, {"measurement": "TGI", "setting": "UACC-62 melanoma", "result": 14.8, "unit": "µM"}, {"measurement": "TGI", "setting": "MDA-MB-231 breast", "result": 22.2, "unit": "µM"}]}, {"smiles": "CC1(C)/C(=N\\O)C2(C#N)CCC1C2", "note": "(centres undefined)", "values": [{"measurement": "TGI", "setting": "HL-60(TB) leukemia", "result": "> 100", "unit": "µM"}, {"measurement": "TGI", "setting": "CCRF-CEM leukemia", "result": "> 100", "unit": "µM"}, {"measurement": "TGI", "setting": "MDA-MB-435", "result": "> 100", "unit": "µM"}, {"measurement": "TGI", "setting": "MOLT-4 leukemia", "result": "> 100", "unit": "µM"}, {"measurement": "TGI", "setting": "CAKI-1 renal", "result": "> 100", "unit": "µM"}, {"measurement": "TGI", "setting": "SNB-75 CNS", "result": "> 100", "unit": "µM"}, {"measurement": "TGI", "setting": "SNB-19 CNS", "result": "> 100", "unit": "µM"}, {"measurement": "TGI", "setting": "ACHN renal", "result": "> 100", "unit": "µM"}, {"measurement": "TGI", "setting": "OVCAR-4 ovarian", "result": "> 100", "unit": "µM"}, {"measurement": "TGI", "setting": "HCC-2998 colon", "result": "> 100", "unit": "µM"}, {"measurement": "TGI", "setting": "NCI/ADR-RES ovarian", "result": "> 100", "unit": "µM"}, {"measurement": "TGI", "setting": "A498 renal", "result": "> 100", "unit": "µM"}, {"measurement": "TGI", "setting": "SK-MEL-28 melanoma", "result": "> 100", "unit": "µM"}, {"measurement": "TGI", "setting": "OVCAR-8 ovarian", "result": "> 100", "unit": "µM"}, {"measurement": "TGI", "setting": "BT-549 breast", "result": "> 100", "unit": "µM"}, {"measurement": "TGI", "setting": "MDA-N", "result": "> 100", "unit": "µM"}, {"measurement": "TGI", "setting": "SW-620 colon", "result": "> 100", "unit": "µM"}, {"measurement": "TGI", "setting": "HCT-15 colon", "result": "> 100", "unit": "µM"}, {"measurement": "TGI", "setting": "SR leukemia", "result": "> 100", "unit": "µM"}, {"measurement": "TGI", "setting": "TK-10 renal", "result": "> 100", "unit": "µM"}, {"measurement": "TGI", "setting": "KM12 colon", "result": "> 100", "unit": "µM"}, {"measurement": "TGI", "setting": "SN12C renal", "result": "> 100", "unit": "µM"}, {"measurement": "TGI", "setting": "UO-31 renal", "result": "> 100", "unit": "µM"}, {"measurement": "TGI", "setting": "RPMI-8226 leukemia", "result": "> 100", "unit": "µM"}, {"measurement": "TGI", "setting": "U251 CNS", "result": "> 100", "unit": "µM"}, {"measurement": "TGI", "setting": "NCI-H226 lung", "result": "> 100", "unit": "µM"}, {"measurement": "TGI", "setting": "K-562 leukemia", "result": "> 100", "unit": "µM"}, {"measurement": "TGI", "setting": "NCI-H23 lung", "result": "> 100", "unit": "µM"}, {"measurement": "TGI", "setting": "HOP-92 NSCLC", "result": "> 100", "unit": "µM"}, {"measurement": "TGI", "setting": "UACC-257 melanoma", "result": "> 100", "unit": "µM"}, {"measurement": "TGI", "setting": "SF-268 CNS", "result": "> 100", "unit": "µM"}, {"measurement": "TGI", "setting": "NCI-H460 lung", "result": "> 100", "unit": "µM"}, {"measurement": "TGI", "setting": "UACC-62 melanoma", "result": "> 100", "unit": "µM"}, {"measurement": "TGI", "setting": "MDA-MB-231 breast", "result": "> 100", "unit": "µM"}]}]}
